The values below come from US20260083691A1, “TREATING CANCERS WITH COMBINATIONS OF ANTI-CD20 ANTIBODY AND ACYLFULVENES” (Lantern Pharma Inc., priority 2023, published 2026).

For one data set, the system named is B-cells (CD19+ or CD20+). Nature of the data set: B-cell reduction in immune-proficient mice, blood analyzed by flow cytometry. It is filed as in vivo. The method, then: (§1) In this study, vehicle, LP-284 (4 mg/kg), and cyclophosphamide (25 mg/kg, a clinically relevant dose) were administered intravenously on days 1, 8, and 15, with three mice per treatment group. Blood samples were collected on Day 16 and analyzed by flow cytometry to quantify the B-cell populations.
A general note: A flow cytometer gives signals particle by particle.

For data set [1], the system named is OCLLY1-derived tumor xenografts. The data set can be described thus: LP-284 alone and with rituximab in OCLLY1 DLBCL/HGBL-MYC/BCL2 tumor xenografts in mice. It is filed as in vivo. To be noted: for tumor growth inhibition (TGI): day 24, NOD.SCID mice. The method, then: HRD genomic scars from 107 B-NHL patients in the Pan-Cancer Analysis of Whole Genomes (PCAWG) study were tested. At least 10% of B-NHL patients were likely HRD+, with approximately 90% of these cases being diffuse large B-cell lymphoma (DLBCL). […] The calculated bliss synergy score between LP-284 and Rituximab on day 24 is 10, indicating synergy.
LP-284's efficacy in DLBCL/HGBL-MYC/BCL2 xenograft models was evaluated. LP-284, vehicle (saline), and Rituximab were administered intravenously in OCLLY1-derived tumor xenografts in mice. All vehicle-treated mice were sacrificed by day 24 due to excessive tumor size.
LP-284 was tested for anti-tumor efficacy as a monotherapy and in combination with rituximab in OCI-LY 1 DLBCL/HGBL-MYC/BCL2 cell line-derived tumor xenografts in mice. Methods: OCLLY1 cells were implanted subcutaneously in NOD.SCID mice. The following treatments were initiated when the tumors reached a volume of >100 mm3: vehicle (saline, administered intravenously on days 1, 8, and 15 in a 28-day cycle), 2 mg/kg or 4 mg/kg LP-284 (administered intravenously on days 1, 8, and 15 in a 28-day cycle), 10 mg/kg rituximab (administered intravenously on days 1 and 15 in a 28-day cycle), 2 mg/kg LP-284 and 10 mg/kg rituximab in combination. Four mice were used in each treatment group. Tumor Growth Inhibition (TGI) was calculated as % TGI=(1−((Tt/T0)/(Ct/C0)))/(1−(C0/Ct))*100 where Tt=mean tumor volume of treated at time t, TO=mean tumor volume of treated at time 0, Ct=mean tumor volume of control at time t, CO=mean tumor volume of control at time 0.

Data set [2] can be described thus: Tolerability (body weight, gross necropsy) in immune-proficient mice. To be noted: 4 mg/kg intravenously days 1, 8, 15. The method, then:
as §1

The structures appear in SMILES notation.

For the molecule `O=P1(N(CCCl)CCCl)NCCCO1` (centres unmarked) [cyclophosphamide, reference compound], the “reduction of B-cells (CD19+ or CD20+)” value in the data set on B-cells (CD19+ or CD20+) (cyclophosphamide 25 mg/kg intravenously days 1, 8, 15, blood collected Day 16, immune-proficient mice) is listed as “comparable to the reduction achieved by cyclophosphamide”.
For the molecule `CC1=C(CN(O)C(N)=O)C2=C(C)C3(CC3)[C@](C)(O)C(=O)C2=C1` [LP-284, (+)-hydroxyureamethyl acylfulvene], the “tumor growth inhibition (TGI)” value in data set [1] (2 mg/kg LP-284 alone intravenously days 1, 8, 15) is 57%. Also, the “tumor growth inhibition (TGI)” value in data set [1] (4 mg/kg LP-284 intravenously days 1, 8, 15) was 99%. In data set [1] (by day 24, versus vehicle (saline), intravenous), the tumor volume entry is on record as “significantly reduced tumor volume”. In addition, in the data set on B-cells (CD19+ or CD20+) (iv, 4 mg/kg, 384 h), the “reduction of B-cells (CD19+ or CD20+)” value was “approximately 30%”. Besides, in data set [2], the body weight result was “normal body weight”, the gross necropsy findings entry was “no abnormal findings” and the tolerability entry was “well-tolerated”.
